Laboratory results from patent US11207285B2, “Diabetes treatment regimens using alpha, alpha-substituted long-chain amphipathic carboxylates” (SYNDROMEX LTD., priority 2016, dated 2021).
Several values for one entry are separate records, joined by “and”; a condition that tells them apart may be missing. Equal values may be shown once.

Legend:
rats = details: WO98/30530, cited from earlier work
half-life in dogs = details: dog, in vivo, read-out: half-life (T1/2) (converted)
Description: (§1) The half-life (T1/2) of Medica compounds in humans differs considerably from their half-life in model animals. […] This difference in half-life could not be expected, and is of considerable significance when designing a new treatment protocol for humans.

[1] = test system: Type 2 Diabetes Mellitus (T2D) patients; test: 4-week M16αα study in T2D patients, efficacy; assay type: in vivo, human; details: for Comp ISI / HP ISI / HbA1c Day 90 - extrapolated / IR / HbA1c Day 28: after
Description: Exploratory, double-blind, randomized, placebo-controlled study, to evaluate the safety, efficacy and pharmacokinetics of 4-week M16αα treatment of Type 2 Diabetes Mellitus (T2D) patients. T2D patients were either non-treated or receiving ongoing treatment with metformin alone or in combination with other standard-of-care (SoC) oral or parenteral antidiabetic drug/s. T2D patients, non-treated or treated with SoC antidiabetic drugs as outlined below, were screened for eligibility (inclusion/exclusion according to criteria detailed below), followed by being randomly allocated to receive once daily either add-on M16αα (40 mg M16αα plus 130 mg microcrystalline cellulose in gelatin capsules) or add-on placebo (130 mg microcrystalline cellulose in gelatin capsules), in addition to the SoC anti-diabetic treatment they have been receiving regularly. One patient was not under SoC anti-diabetic drug treatment. Sixteen (16) patients were randomized to M16αα treatment and 3 patients were randomized to placebo treatment. Patients randomized to M16αα treatment were dosed for 28 days with add-on M16αα in double-blinded manner, followed by 4-week recovery period using add-on placebo in a single-blinded manner. Patients randomized to placebo treatment were dosed for 28 days with add-on placebo in double-blinded manner. Cohort 1 included 6 uncontrolled T2D patients (HbA1c>7.3%), 5 treated for their hyperglycemia by metformin only (patients 101, 102, 103, 105, 106), and one naïve patient (not under SoC anti-diabetic treatment, patient 108). Cohort 2 included 6 T2D patients (HbA1c>7.3%) (patients 202, 203, 205, 206, 207, 210) treated for their hyperglycemia by a variety of SoC anti-diabetic drug/s except insulin/insulin analogs (metformin plus sulphonylurea and/or DPP4 inhibitor and/or GLP1 analog and/or SGLT2 inhibitor). Cohort 3 included 4 T2D patients (HbA1c>7.3%) treated for their hyperglycemia by basal insulin analogs and a variety of anti-diabetic drugs (metformin and/or sulphonylurea and/or DPP4 inhibitor and/or GLP1 analog and/or SGLT2 inhibitor). During the study period the subjects underwent physical examination, clinical pathology, hematology, urinalysis, lipid profile, HbA1C, continuous glucose monitoring (CGM) and an oral glucose tolerance test (OGTT) (75 g glucose; glucose, insulin, c-peptide; 0, 30, 60, 120, 180 min) prior to dosing, upon end of M16αα treatment, and following the recovery period (EOS visit). HbA1c, Continuous glucose monitoring (CGMS), OGTT (Glucose/Insulin/C-peptide), HOMA, Hepatic Insulin Sensitization Index (HP ISI), Composite insulin sensitization index (Comp ISI), Insulin resistance (IR), plasma lipid profile (Triglycerides, Cholesterol, LDL-C, VLDL-C, HDL-C, non-HDL-C, apoB), hsCRP, Fibrinogen. All measured variables and derived parameters were listed individually and tabulated by descriptive statistics. For descriptive statistics summary tables were provided giving sample size, means, standard deviations and 95% CI (Confidence Interval) or frequency with percentage according to the scale of the variable. Regarding small sample size, non-parametric methods were conducted: Differences between end of drug dosing and baseline for each efficacy parameter were analyzed using the Wilkcoxon matched-pairs signed-ranks test. Differences between M16αα-treated and placebo groups were analyzed for each efficacy parameter using the Mann-Whitney two-sample U-test. Drug: 40 mg 2,2,15,15-tetramethylhexadecane-dioic acid (M16αα) per day, in a gelatin capsule. This daily dose of M16αα is based on safety and PK considerations in a previous, single-dose study in healthy volunteers and pre-clinical data. Administration: oral, before breakfast, with 240 ml water, for both drug and placebo. M16αα or placebo were administered orally for 28 consecutive days, followed by additional 28 days of placebo. End of Study (EOS) visit took place about 4 weeks after last dose of M16αα administered. […]

[2] = 4-week M16αα study in T2D patients, trough plasma levels; assay type: in vivo, human; details: Cohort 1 patients, 40 mg once daily oral, 28-day dosing period
Protocol: Pre-dose blood samples to determine trough levels of M16αα were collected in lithium heparin tubes at the following dosing days: 1, 8, 15, 28, and EOS visit. Plasma M16αα concentrations have been presently processed for Cohort 1 patients only. […] Calculated PK parameters: Pre-dose Css.
Plasma concentrations of M16αα are determined by a validated LC/MS method. The lower and upper limits of quantitation for M16αα concentrations are 100 ng/mL and 5000 ng/mL, respectively. The assay is linear from 0.1-5 μg/mL. Dilution extends the range to 100 μg/mL

[3] = test system: cultured human HepG2 liver cells; test: inhibition of lipoprotein production in HepG2 cells; assay type: cell-based
[4] = test system: Sterol response element binding protein 1 & 2 (SREBP); test: transcriptional activity of SREBP
half-life in rats = details: rat, in vivo, read-out: half-life (T1/2) (converted)
Description: as §1

half-life in humans = assay type: in vivo
Description: as §1

[5] = Cohort 1 single patients 101, 102, 106 on metformin only, add-on 40 mg/day
[6] = Cohort 2 single patients 202, 205, 206 on SoC drugs except insulin, add-on 40 mg/day
[7] = Cohort 3 single patients 301-304 on basal insulin analogs and other drugs, add-on 40 mg/day
[8] = patient 108, no ongoing anti-diabetic treatment, 40 mg/day
[9] = baseline 1.0, all patients on add-on M16αα
[10] = estimated by linear extrapolation from 28 d
[11] = weighted average, all patients on add-on M16αα

half-life (half-life in dogs): 65 h | transcriptional activity of SREBP [4]: suppressing | half-life (half-life in rats): 2.4 ± 0.6 h | half-life (T1/2) (half-life in humans): 30 to 80 h | half-life (half-life in humans; human, in vivo, as stated in PK evaluation, read-out: half-life): 30 to 80 h
SMILES: CC(C)(CCCCCCCCCCCCC(C)(C)C(=O)O)C(=O)O [M16αα, 2,2,15,15-tetramethyl-hexadecane-1,16-dioic acid]
plasma lipids (rats; hyperlipidemic animal models): normalization of plasma lipids | plasma triglycerides and cholesterol (rats; normolipidemic animals): decrease in plasma triglycerides and cholesterol | hypolipidemic activity (rats; rats): potent hypolipidemic agent | Continuous glucose monitoring [CGM(<180 mg %)], Change in Baseline: Increase by ([1]; % of time with glucose lower than 180 mg %, baseline 71 ± 25%): Increase by 8.4% | insulin sensitizing activity compared with add-on pioglitazone ([1]; M16αα added-on to metformin): surpasses that reported for add-on Pio | diabetic profile ([1]; T2D patient not under anti-diabetic SoC, low dose): significantly improved diabetic profile | prospective glucose-lowering activity compared with SoC oral anti-diabetic drugs ([1]; add-on M16αα): surpasses those reported for current SoC oral anti-diabetic drugs | Comp ISI [1, 5]: 19.17 and 5.0 and 10.10 | HP ISI [1, 5]: 9.5 and 2.3 and 2.1 | HbA1c Day 90 - extrapolated [1, 5]: 5.3 and 5.9 and 5.4 | IR [1, 5]: 0.4 and 0.6 and 0.5 | HbA1c Day 28 ([1]; Cohort 1 single patients 101, 102, 106 on metformin only, add-on 40 mg/day oral 28 d): 6.7 and 6.9 and 6.8 | Comp ISI [1, 6]: 2.2 and 4.7 and 5.5 | HP ISI [1, 6]: 0.4 and 0.6 and 1.1 | HbA1c Day 90 - extrapolated [1, 6]: 6.0 and 8.1 and 4.1 | IR [1, 6]: 2.2 and 1.8 and 0.9 | HbA1c Day 28 ([1]; Cohort 2 single patients 202, 205, 206 on SoC drugs except insulin, add-on 40 mg/day oral 28 d): 6.8 and 8.1 and 7.1 | Comp ISI [1, 7]: 4.6 and 6.9 and 6.3 | HP ISI [1, 7]: 0.79 and 0.88 and 1.33 and 1.41 | IR [1, 7]: 1.4 and 1.1 and 0.8 and 0.7 | HbA1c Day 28 ([1]; Cohort 3 single patients 301-304 on basal insulin analogs and other drugs, add-on 40 mg/day oral 28 d): 8.17 and 7.33 and 7.52 and 8.73 | Comp ISI [1, 8]: 5.8 | HP ISI [1, 8]: 1.6 | HbA1c Day 90 - extrapolated [1, 8]: 7.6 | IR [1, 8]: 0.6 | HbA1c Day 28 ([1]; patient 108, no ongoing anti-diabetic treatment, 40 mg/day oral 28 d): 7.6 | Composite insulin sensitization index (CompISI), Change in Baseline: Increase by [1, 9]: Increase by 2.04-fold | HOMA insulin resistance (HOMAIR), Change in Baseline: Increase by [1, 9]: Increase by 0.59-fold | Hepatic insulin sensitization index (HepISI), Change in Baseline: Increase by [1, 9]: Increase by 2.50-fold | HOMA % B, Change in Baseline: Decrease by ([1]; baseline 1.0, beta-cell rest): Decrease by 0.81-fold | Bodyweight, Change in Baseline: Decrease by ([1]; baseline 88 ± 9 kg): Decrease by 0.6 kg | Σglucose (OGTT 0, 30, 60, 120, 180 min), Change in Baseline: Decrease by ([1]; baseline 100, all patients on add-on M16αα): Decrease by 7.8% | Σc-peptide (OGTT 0, 30, 60, 120, 180 min), Change in Baseline: Decrease by ([1]; baseline 100, beta-cell rest): Decrease by 17% | Hypertension, Change in Baseline ([1]; baseline 136 ± 13/75 ± 7): Decrease in 5 patients | Fasting blood glucose (FBG), Change in Baseline: Decrease by ([1]; baseline 159 ± 56 mg/dL, all patients on add-on M16αα): Decrease by 11.7% | Plasma triglycerides, Change in Baseline: Decrease by ([1]; baseline 169 ± 95 mg/dL): Decrease by 18% | HbA1C (%) (Estimated 90 d), Change in Baseline: Decrease by [1, 10]: Decrease by 0.96-1.44% | HbA1C (Estimated 90 d), Change in Baseline: Decrease [1, 10]: (10.6-15.8 mmol/mol) | HbA1C (Estimated 90 d), Change in Baseline: Decrease as eAG [1, 10]: (eAG 28-42 mg/dL) | effectiveness as add-on drug ([1]; patients under anti-diabetic SoC): effective as an add-on drug | HbA1C (28 d), Change in Baseline: Decrease [1, 11]: (5.28 mmol/mol) | HbA1C (28 d), Change in Baseline: Decrease as eAG [1, 11]: (eAG 14 mg/dL) | HbA1C (%) (28 d), Change in Baseline: Decrease by ([1]; weighted average, all patients on add-on M16αα 40 mg/day, baseline 7.96 ± 0.81): Decrease by 0.48% | trough M16αα plasma concentrations [2]: increased progressively throughout the 28-day dosing period | lipoprotein production [3]: significant or full inhibition
